Experimental data from article PMC5955586, “Transport of enniatin B and enniatin B1 across the blood-brain barrier and hints for neurotoxic effects in cerebral cells” (PLoS ONE, 2018).

Key:
[1] = test system: PBCEC monolayer; experiment: Lucifer yellow permeability through PBCEC monolayer; assay type: in vitro ADME, porcine
Experimental: Before starting each experiment, the TEER values and the electrical capacitance of all cell layers were measured via cellular impedance spectroscopy (cellZscope®, nanoAnalytics, Münster, Germany). […] TEER values relate to the constitution of the tight junctions limiting paracellular transfer of compounds. In addition to the TEER, electrical capacitances (CCl) were monitored for 48 h. Cellular phospholipid bilayers act like an electrical capacitor and also contribute to the cellular impedance. Changes of the CCl value give information about the integrity of the cell monolayer. In this experiment, a parallel set up was applied. For each treatment, one triplicate of filters was monitored via cellular impedance spectroscopy over the course of 48 h using a cellZscope® device–here, the basolateral compartment was prepared with 1650 μL serum free medium and the volume in the apical compartment was filled to 760 μL (ratio 1:2.17). Another triplicate for the same incubation conditions was kept in Transwell® filter cell culture multiple well plates (12 well format) over the course of 48 h. In the multiple well plates the ratio between the apical and the basolateral compartment was 1:3, therefore the starting volume in the apical compartment is 500 μL and 1500 μL in the basolateral compartment. Here, samples for quantitation of transfer of enniatins across the barrier were drawn after 1, 2.5, 6.5, 18, 24, 28, 42 and 48 hours in this given ratio i.e. 30 μL apical and 90 μL basolateral. After 48 h, the final TEER values of the filters from the multiple well plate were measured to ensure the stability of the cell layer throughout the experiment. To double check the integrity of the barrier, lucifer yellow (LY, 50 μM), as a paracellular transfer marker, was applied. The amount of LY found in the basolateral compartment after 1 h was measured at λex = 430 nm and λ em = 540 nm.
After completion of each transport experiment, both active and passive, lucifer yellow (LY) was applied in 50 μM concentration in the apical compartments. Samples were drawn after 1 h and the amount of LY in the basolateral compartment was quantitated via external calibration. The permeability coefficients for LY through cells treated with the solvent control (ACN 0.1% and 0.02%) and through cells treated with the test compounds for the past 48 h were calculated (Table 2). The permeability coefficients range in the same order of magnitude for test substance treated cells and cells incubated with solvent, which is considerably lower than the permeability coefficients derived for ENN B and ENN B1 and indicates an intact and tight monolayer with low paracellular transfer of compounds.

[2] = test system: PBCEC; settings: cited from earlier work

In the case of lucifer yellow [LY], the “Permeability coefficient of LY” value ([1]; after 48 h treatment with 200 nM ENN B1 in both compartments (active)) is reported as 0.9 10^−6 cm/s, the “Permeability coefficient of LY” value ([1]; after 48 h treatment with 200 nM ENN B in both compartments (active)) is reported as 0.7 10^−6 cm/s and the “Permeability coefficient of LY” value ([1]; after 48 h treatment with 1 μM ENN B1 apically (passive)) is reported as 2.2 10^−6 cm/s. The “Permeability coefficient of LY” value ([1]; after 48 h treatment with 1 μM ENN B apically (passive)) was 1.9 10^−6 cm/s, the “Permeability coefficient of LY” value ([1]; solvent control ACN 0.02%) was 0.2 10^−6 cm/s and the “Permeability coefficient of LY” value ([1]; solvent control ACN 0.1%) was 3.2 10^−6 cm/s.
In the case of `Cn1c(=O)c2c(ncn2C)n(C)c1=O` [caffeine], the Papp [2] is listed as 15.5 ×10⁻⁶ cm/s.
